The values below come from the supplement of paper PMC12137928.

For this test, the system named is HCT116. As to conditions: 72 h. The essentials: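 Luminescence was read with CellTiter-Glo in HCT116 cells seeded at 250 per well in 1536-well plates. Signals were scaled between vehicle at 0% and positive control at -100%, then pattern-corrected. IC50 and maximal efficacy were obtained by fitting a four-parameter Hill equation.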

Structures can show the parent of a compound that is named as a salt.

In the case of `C[C@]12CC[C@H]3[C@@H](CCC4=CC(=O)CC[C@@H]43)[C@@H]1CC[C@@H]2OC(=O)CCc1ccccc1` [Nandrolone phenpropionate], the IC50 cell viability is greater than 45.8 µM (ICRF193 0 nM) and greater than 45.8 µM (ICRF193 200 nM).
In the case of `O=P(O)(O)C(Sc1ccc(Cl)cc1)P(=O)(O)O` [Tiludronate disodium salt hydrate], the IC50 cell viability was greater than 45.8 µM (ICRF193 0 nM) and greater than 45.8 µM (ICRF193 200 nM).
Take `CCCCOc1ccc(OCCCN2CCOCC2)cc1` [Pramoxine hydrochloride]: the IC50 cell viability runs as follows: (ICRF193 0 nM) greater than 45.8 µM; (ICRF193 200 nM) greater than 45.8 µM.
For the compound `CCN(CC)CCNC(=O)c1cc(Cl)c(N)cc1OC` [Metoclopramide], the IC50 cell viability was greater than 45.8 µM (ICRF193 0 nM) and greater than 45.8 µM (ICRF193 200 nM).
Consider `C/N=C(\NC)NCc1ccccc1` [Bethanidine sulfate (2:1)], for which the IC50 cell viability by setting is: (ICRF193 0 nM) greater than 45.8 µM; (ICRF193 200 nM) greater than 45.8 µM.
For `CC1(C)C(C=C(Cl)Cl)C1C(=O)OCc1cccc(Oc2ccccc2)c1` (stereo not drawn) [PERMETHRIN], the IC50 cell viability is, setting by setting: (ICRF193 0 nM) greater than 45.8 µM; (ICRF193 200 nM) greater than 45.8 µM.
On to `CC(=O)SC[C@@H](C)C(=O)N1CCC[C@H]1C(=O)N[C@@H](Cc1ccccc1)C(=O)O` [Alacepril], for which the IC50 cell viability (ICRF193 0 nM) was greater than 45.8 µM and the IC50 cell viability (ICRF193 200 nM) is greater than 45.8 µM.
Take `CC(=O)Oc1c(C)c(C)c2c(c1C)CCC(C)(CCCC(C)CCCC(C)CCCC(C)C)O2` (racemic) [dl-alpha-Tocopheryl acetate]: the IC50 cell viability was greater than 45.8 µM (ICRF193 0 nM) and greater than 45.8 µM (ICRF193 200 nM).
For the compound `NS(=O)(=O)c1cc2c(cc1Cl)NC(CC1CCCC1)NS2(=O)=O` (stereo not drawn) [Cyclopenthiazide], the IC50 cell viability by setting is: (ICRF193 0 nM) greater than 45.8 µM; (ICRF193 200 nM) greater than 45.8 µM.
Consider `Cc1ccc(/C=C2/C(=O)C3(C)CCC2C3(C)C)cc1` (stereo not drawn) [ENZACAMENE], for which the IC50 cell viability was greater than 45.8 µM (ICRF193 0 nM) and greater than 45.8 µM (ICRF193 200 nM).
As to `NC(=O)c1ccc([N+](=O)[O-])cc1Cl` [2-Chloro-4-nitrobenzamide], the IC50 cell viability (ICRF193 0 nM) is greater than 45.8 µM and the IC50 cell viability (ICRF193 200 nM) was greater than 45.8 µM.
`C=C(C)[C@H]1CC=C(C)CC1` [d-LIMONENE]: the IC50 cell viability is, setting by setting: (ICRF193 0 nM) greater than 45.8 µM; (ICRF193 200 nM) greater than 45.8 µM.
Take `CCCCCCCCCC(=O)OCCN1CCN(CC/C=C2/c3ccccc3Sc3ccc(Cl)cc32)CC1` [Zuclopenthixol Decanoate]: the IC50 cell viability is, setting by setting: (ICRF193 0 nM) greater than 45.8 µM; (ICRF193 200 nM) greater than 45.8 µM.
Take `C[C@]12C=CC(=O)N[C@@H]1CC[C@@H]1[C@@H]2CC[C@]2(C)[C@@H](C(=O)Nc3cc(C(F)(F)F)ccc3C(F)(F)F)CC[C@@H]12` [Dutasteride]: the IC50 cell viability was greater than 45.8 µM (ICRF193 0 nM) and greater than 45.8 µM (ICRF193 200 nM).
Regarding `C[C@@H](O)[C@H]1C(=O)N2C(C(=O)O)=C(S[C@@H]3CN[C@H](CNS(N)(=O)=O)C3)[C@H](C)[C@H]12` [Doripenem], the IC50 cell viability is greater than 45.8 µM (ICRF193 0 nM) and greater than 45.8 µM (ICRF193 200 nM).
On to `CN(C)CCN(Cc1cccs1)c1ccccn1` [Methapyrilene hydrochloride], for which the IC50 cell viability is greater than 45.8 µM (ICRF193 0 nM) and greater than 45.8 µM (ICRF193 200 nM).
Regarding `CC1(C)NC(=O)N(c2ccc([N+](=O)[O-])c(C(F)(F)F)c2)C1=O` [Nilutamide], the IC50 cell viability was greater than 45.8 µM (ICRF193 0 nM) and greater than 45.8 µM (ICRF193 200 nM).
For `Cn1nnc2c(C(N)=O)ncn2c1=O` [Temozolomide], the IC50 cell viability (ICRF193 0 nM) is greater than 45.8 µM and the IC50 cell viability (ICRF193 200 nM) was greater than 45.8 µM.
On to `COc1ccc(-c2c(Cl)ncn2-c2ccc(S(N)(=O)=O)cc2)cc1F` [Cimicoxib], for which the IC50 cell viability (ICRF193 0 nM) was greater than 45.8 µM and the IC50 cell viability (ICRF193 200 nM) is greater than 45.8 µM.
In the case of `O=NN(CCCl)C(=O)NC1CCCCC1` [Lomustine], the IC50 cell viability runs as follows: (ICRF193 0 nM) greater than 45.8 µM; (ICRF193 200 nM) greater than 45.8 µM.
Regarding `NC(N)=Nc1nc(CSCC/C(N)=N/S(N)(=O)=O)cs1` [Famotidine], the IC50 cell viability is greater than 45.8 µM (ICRF193 0 nM) and greater than 45.8 µM (ICRF193 200 nM).
`OC(CCN1CCCC1)(c1ccccc1)C1CCCCC1` (stereo not drawn) [Procyclidine hydrochloride] yielded an IC50 cell viability (ICRF193 0 nM) greater than 45.8 µM and an IC50 cell viability (ICRF193 200 nM) greater than 45.8 µM.
With `CN(C)[C@@H]1C(O)=C(C(N)=O)C(=O)[C@@]2(O)C(O)=C3C(=O)c4c(O)cccc4[C@@](C)(O)[C@H]3[C@H](O)[C@@H]12` [Oxytetracycline], the IC50 cell viability (ICRF193 0 nM) was greater than 45.8 µM and the IC50 cell viability (ICRF193 200 nM) was greater than 45.8 µM.
As to `Cc1nnc(NS(=O)(=O)c2ccc(N)cc2)s1` [Sulfamethizole], the IC50 cell viability reads like this: (ICRF193 0 nM) greater than 45.8 µM; (ICRF193 200 nM) greater than 45.8 µM.
Consider `CCOc1ccc2ccccc2c1C(=O)N[C@@H]1C(=O)N2[C@@H]1SC(C)(C)[C@@H]2C(=O)O` [Nafcillin sodium monohydrate], for which the IC50 cell viability is greater than 45.8 µM (ICRF193 0 nM) and greater than 45.8 µM (ICRF193 200 nM).
On to `C=CCCCCCCCCC(=O)[O-].C=CCCCCCCCCC(=O)[O-].[Ca+2]` [Calcium undecylenate], for which the IC50 cell viability is greater than 45.8 µM (ICRF193 0 nM) and greater than 45.8 µM (ICRF193 200 nM).
In the case of `CCC(=O)OCC(=O)[C@@]1(OC(=O)CC)[C@H](C)C[C@H]2[C@H]3[C@H]([C@@H](O)C[C@@]21C)[C@@]1(C)C=CC(=O)C=C1C[C@H]3Cl` [Alclometasone dipropionate], the IC50 cell viability is, setting by setting: (ICRF193 0 nM) greater than 45.8 µM; (ICRF193 200 nM) greater than 45.8 µM.
On to `CCC[C@H](N[C@@H](C)C(=O)N1[C@H](C(=O)O)C[C@@H]2CCCC[C@@H]21)C(=O)OCC` [Perindopril], for which the IC50 cell viability is greater than 45.8 µM (ICRF193 0 nM) and greater than 45.8 µM (ICRF193 200 nM).
For `Cn1nnnc1SCC1=C(C(=O)O)N2C(=O)[C@@H](NC(=O)[C@H](O)c3ccccc3)[C@H]2SC1` [CEFAMANDOLE SODIUM], the IC50 cell viability is, setting by setting: (ICRF193 0 nM) greater than 45.8 µM; (ICRF193 200 nM) greater than 45.8 µM.
With `CCN(CC)CCOCCOC(=O)C(CC)(CC)c1ccccc1` [Oxeladin Citrate], the IC50 cell viability runs as follows: (ICRF193 0 nM) greater than 45.8 µM; (ICRF193 200 nM) greater than 45.8 µM.
Turning to `OB1OCc2cc(F)ccc21` [AN-2690], the IC50 cell viability reads like this: (ICRF193 0 nM) greater than 45.8 µM; (ICRF193 200 nM) greater than 45.8 µM.
`CCC1(C)CC(=O)NC(=O)C1` [Bemegride]: the IC50 cell viability was greater than 45.8 µM (ICRF193 0 nM) and greater than 45.8 µM (ICRF193 200 nM).
Take `O=C(OCc1ccccc1)c1ccccc1` [Benzyl benzoate]: the IC50 cell viability reads like this: (ICRF193 0 nM) greater than 45.8 µM; (ICRF193 200 nM) greater than 45.8 µM.
Regarding `Cc1c(C)c2c(c(C)c1OC(=O)c1cccnc1)CC[C@@](C)(CCC[C@H](C)CCC[C@H](C)CCCC(C)C)O2` (racemic) [DL-alpha Tocopheryl nicotinate], the IC50 cell viability (ICRF193 0 nM) is greater than 45.8 µM and the IC50 cell viability (ICRF193 200 nM) is greater than 45.8 µM.
In the case of `NC(CS)C(=O)O` (racemic) [DL-Cysteine], the IC50 cell viability is greater than 45.8 µM (ICRF193 0 nM) and greater than 45.8 µM (ICRF193 200 nM).
Turning to `COc1ccccc1O` [Guaiacol], the IC50 cell viability by setting is: (ICRF193 0 nM) greater than 45.8 µM; (ICRF193 200 nM) greater than 45.8 µM.
In the case of `CS(=O)(=O)c1ccc([C@@H](O)[C@@H](CO)NC(=O)C(Cl)Cl)cc1` [Thiamphenicol], the IC50 cell viability runs as follows: (ICRF193 0 nM) greater than 45.8 µM; (ICRF193 200 nM) greater than 45.8 µM.
Consider `CC[N+](CC)(CC)CCOC(=O)C(C1CCCC1)C1CCCC1` [Diponium bromide], for which the IC50 cell viability runs as follows: (ICRF193 0 nM) greater than 45.8 µM; (ICRF193 200 nM) greater than 45.8 µM.
As to `CC(C)C(=O)c1c(C(C)C)nn2ccccc12` [Ibudilast], the IC50 cell viability (ICRF193 0 nM) was greater than 45.8 µM and the IC50 cell viability (ICRF193 200 nM) was greater than 45.8 µM.
